Source: US20240174714A1, “TREATMENT OF SKIN DISORDERS” (priority 2021, published 2024)
Converted amounts (≈) assume the structure as drawn. Square brackets hold non-standard residues; d marks the D form. Peptide text beside a SMILES is read from it. * marks the point of attachment. NH(1-CH2NMe2-cBu) = CN(C)CC1(N*)CCC1; Benzoyl(4-F) = O=C(c1ccc(F)cc1)*; hCha = N[C@@H](CCC1CCCCC1)C(=O)O; Aib = CC(C)(N)C(=O)O; βAla = NCCC(=O)O

Tests used:
[1] = after 48 hours; donor 0.1% 6027 in DMSO; acceptor PBS + 2% Volpo; % of total 6027
Protocol: The ears were washed with tap water and the hairs were removed with an electric clipper. The skin was separated from the underlying cartilage from the backside of the ear by using a scalpel. After washing the skin again, it was stored in aluminium foil at −20° C. for no longer than one month.
After thawing the frozen skin, it was cut into adequate circles and the skin thickness was measured with a calliper. The skin was mounted into the FDC, tightly sealed with Teflon band and fixed in special designed holder. Then the acceptor compartment was equipped with a magnetic stirrer, filled with placebo formulation and equilibrated for one hour. To check the barrier integrity and to be sure that there are no invisible damages from skin preparation TEWL (transepidermal water loss) was measured. The FDCs were then placed in the water bath +32° C. ±1 over a magnetic stirrer (500 rpm). Due to differences of each FDC, the skin application area for drug permeation was measured and calculated for each cell in advance. Consequently, the amount of 6027 for the donor compartment had to be adjusted for the infinite-dose experiment to 284.1 μL/cm^2.
At predefined time points 50 μL samples were taken from the acceptor compartment. The missing volume was replaced with the corresponding placebo formulation.
At the end of the permeation experiment and before reassembling the FDCs, the donor compartments were washed out with 10 mL ACN:H2O (55:45).
To extract 6027 from the skin, the frozen skin was cut into small pieces and grinded by a cryogenic grinder Freezer/Mill® from Spex SamplePrep (Metuchen, USA). The setting was 10 min precooling and a rate of 10 CPS for 4 cycles with 2 minutes. The resulting powder was resuspended in 2 mL ACN:H2O (55:45). After being vortex, the mixtures were ultrasonicated with Branson Sonifier 250 (model: 101-cx03-197) from Branson Ultrasonics Corporation (Danbury, USA). The setting for ultrasonification was output control 2 and duty cycle 30% for 60 seconds. […]
The concentrations of 6027 were determined by using HPLC-MS from Agilent Technologies. […]

[2] = tested on: Streptococcus agalactiae ATCC 12386; test: MIC broth microdilution, method 1; type: cell-based; conditions: CAMHB II, 5% LHB, 1 day at 36° C., 6027 acetate
[3] = tested on: Staphylococcus aureus ECL 2963646; test: microbe, parasite or virus in culture; type: cell-based
[4] = tested on: Leishmania mexicana (MNYC/BZ/62/m379); test: In vivo model of cutaneous leishmaniasis, rump back model in C67BLC/6 mice; conditions: 20 μl 0.1% w/v in DMSO topically bid for 14 days
Excerpt: Mice. C67BLC/6 female mice were purchased from Envigo (Harlan laboratories) Indianapolis, IN, USA. 129SVE female mice were purchased from Taconic Farms, Cambridge City, IN, USA. All experimental mice were maintained at an OSU-ULAR facility in compliance with OSUIACUC.
Parasites and infection. L. mexicana (MNYC/BZ/62/m379) parasites were obtained and maintained as described previously. Promastigotes were maintained, passaged, and subsequently injected into experimental mice (5×10^6 parasites) subcutaneously into their shaven rumps. C67BLC/6 mice were infected with L. mexicana parasites for 6 weeks after which they developed lesions on their back rumps. Mice with similar lesion sizes were selected and randomized into control and treatment groups. From the beginning of treatment animals were housed individually.
Treatment. Treatment group received 20 μl of ZHAW6027 0.1% weight by volume in DMSO, twice a day (bid) for 14 days. […]
Topical drug treatments and lesion measurements. Lesion sizes were measured by using a small animal caliper twice weekly over the 14-day treatment duration and the area of the lesion was calculated by L×W, where L is the length and W is the width. […]
Quantitation of parasitic load. After 2 weeks of treatment animals were sacrificed, and the parasite load in the lesions was quantified. […] Viability of parasites was determined at 10 days of parasite culture. […]

physchem = conditions: octanol/water
[5] = tested on: Staphylococcus aureus ATCC 43300, MRSA; type: cell-based; conditions: ATCC 43300, 18 h
Protocol: The antibacterial activity of inventive compounds was evaluated in duplicate in a further Minimum Inhibitory Concentration (MIC) assay.
Bacteria were cultured in Cation-adjusted Mueller Hinton broth (CAMHB) at 37° C. overnight. A sample of each culture was then diluted 40-fold in fresh broth and incubated at 37° C. for 1.5-3 h. The resultant mid-log phase cultures were diluted (CFU/mL measured by OD600), then added to each well of the compound containing plates, giving a cell density of 5×10^5 CFU/mL and a total volume of 50 μL. All the plates were covered and incubated at 37° C. for 18 h without shaking.
Samples were prepared in DMSO and serially diluted 2 fold 8 times. Each sample concentration was prepared in 384-well plates, non-binding surface plate (NBS; Corning 3640) for the bacterial strain ATCC 43300, MRSA. The final DMSO concentration was at a maximum of 0.5%.
Inhibition of bacterial growth was determined measuring absorbance at 600 nm (OD600), using a Tecan M1000 Pro monochromator plate reader. The percentage of growth inhibition was calculated for each well, using the negative control (media only) and positive control (bacteria without inhibitors) on the same plate as references. […] Vancomycin was used as positive bacterial inhibitor standards.

[6] = tested on: Staphylococcus aureus ATCC BAA-1556; test: microbe, parasite or virus in culture; type: cell-based; conditions: ATCC BAA-1556
[7] = tested on: Streptococcus pyogenes ATCC 19615; test: MIC broth microdilution, method 1; type: cell-based; conditions: CAMHB II, 5% LHB, 1 day at 36° C., 6027 acetate
[8] = tested on: Trichophyton mentagrophytes (ATCC 9533); type: cell-based
Protocol: (§1) Pre-formulated compound solution was diluted in 100% DMSO to prepare a 1.6 mg/mL working stock solution. […] Test concentration range was 0.032 to 32 μg/mL.
(§2) Vehicle-control and an active reference agent were used as blank and positive controls.

[9] = tested on: Trichophyton rubrum (ATCC 10218); type: cell-based
Protocol: as §1, §2

[10] = tested on: Staphylococcus aureus NARSA NRS119; test: microbe, parasite or virus in culture; type: cell-based; conditions: NARSA NRS119
[11] = tested on: Clostridium difficile ATCC BAA-1805; conditions: RCM, anaerobic, 2 days at 36° C., 6027 acetate
Protocol: The antibacterial activity of inventive compounds was determined in duplicate in a Minimum Inhibitory Concentration (MIC) assay.
The antibacterial activity of 6027 acetate was measured using the in vitro broth microdilution assay under assay conditions described by the Clinical and Laboratory Standards Institute. […] Pre-formulated DMSO stock solution (26.67 mg/mL) was provided by sponsor. The 26.67 mg/mL stock solution was then diluted in DMSO to prepare a 6.4 mg/mL working stock solution. The 6.4 mg/mL working stock solution was diluted by 2-fold serial titrations in DMSO, for a total of 11 test concentrations. A 4 μl aliquot of each dilution was added to 196 of broth medium seeded with the organism suspension in wells of a 96 well plate (bacterial count: 2 −8×10^5 colony forming units/mL final). The final volume was 200 μl in each well and the final DMSO concentration was 2 percent. Test concentrations were 128 to 0.125 μg/mL.
Following incubation, the plates were visually examined, and wells were scored for growth or complete growth inhibition to define the minimum inhibitory concentration. […] Vehicle-control and Vancomycin or Linezolid, as depicted at Table 8, were used as blank and positive controls, respectively.

[12] = tested on: Staphylococcus aureus ATCC BAA-1717; test: microbe, parasite or virus in culture; type: cell-based; conditions: ATCC BAA-1717, Methicillin resistant; CAMHB II, 1 day at 36° C.; 6027 acetate

Structure (SMILES): CC(C)C[C@H](NC(=O)[C@H](CCC1CCCCC1)NC(=O)[C@@H]1CCCN1C(=O)c1ccc(F)cc1)C(=O)NC(C)(C)C(=O)N[C@@H](CC(C)C)C(=O)N[C@@H](CC(C)C)C(=O)NC(C)(C)C(=O)NC(C)(C)C(=O)NCCC(=O)NC1(CN(C)C)CCC1 [Compound 6027, (2S)-2-[(2S)-4-cyclohexyl-2-{[(2S)-1-(4-fluorobenzoyl)pyrrolidin-2-yl]formamido}butanamido]-N-(1-{[(1S)-1-{[(1S)-1-({1-[(1-{[2-({1-[(dimethylamino)methyl]cyclobutyl}carbamoyl)ethyl]carbamoyl}-1-methylethyl)carbamoyl]-1-methylethyl}carbamoyl)-3-methylbutyl]carbamoyl}-3-methylbutyl]carbamoyl}-1-methylethyl)-4-methylpentanamide] ({Benzoyl(4-F)}-P[hCha]L[Aib]LL[Aib][Aib][βAla]-{NH(1-CH2NMe2-cBu)})
- Acceptor (%) [1]: 0.2%
- Donor (%) [1]: 79%
- Skin extraction (%) (skin penetration) [1]: 16%
- MIC of 6027 [2]: 1 µg/mL
- MIC of 6027 [3]: 2 µg/mL
- reduction of parasite loads in lesions compared to the control ([4]; limiting dilution assay, FIG. 2): about 3 orders of magnitude
- volume of the induced CL lesions over time ([4]; vs vehicle (DMSO), where lesions increased, FIG. 1): gradually reduced
- logD (physchem): 4.56
- MIC [5]: 2 µg/mL (≈ 1.69 µM)
- MIC of 6027 [6]: 2 µg/mL
- MIC of 6027 [7]: 4 µg/mL
- T. mentagrophytes (ATCC 9533) MIC [8]: 16 µg/mL
- T. rubrum (ATCC 10218) MIC [9]: 32 µg/mL
- MIC of 6027 [10]: 2 µg/mL
- MIC of 6027 [11]: 0.25 µg/mL
- MIC of 6027 [12]: 1 µg/mL
